Reference: ChEMBL document CHEMBL3885861, “Open TG-GATES”

Organism: Rattus norvegicus
Assay: Open TG-GATES - Regimen: Single
Type: toxicity, organism-based, Sprague-Dawley
Parameters: regimen Single, gender Male, age 6 weeks
Conditions: in vivo, po, 0 mg/kg, route gavage, dose level Control; for APTT / Bas / Eos / Fbg / Hb / Ht / Lym / MCH / MCHC / MCV / Mono / Neu / PT / Plat / RBC / Ret / WBC: tissue Blood; for KIDNEY_TOTAL: tissue Kidney; for LIVER: tissue Liver; for A/G / ALP / ALT / AST / BUN / CRE / Ca / Cl / DBIL / GLC / IP / K / LDH / Na / PL / RALB / TBIL / TC / TG / TP / gamma-GTP: tissue Plasma

Molecule `CN(CCOc1ccc(CC2SC(=O)NC2=O)cc1)c1ccccn1.O=C(O)/C=C\C(=O)O` (centres undefined) [ROSIGLITAZONE MALEATE] has a TERMINAL_BW (3 h) of 206.3 g, an APTT (3 h) of 15.8 s and a Bas (3 h) of 0%. It also gave an Eos (3 h) of 0.6%, a Fbg (3 h) of 216.8 mg/dL and a Hb (3 h) of 13.1 g/dL. It also gave a Ht (3 h) of 39.7%, a Lym (3 h) of 75.6% and an MCH (3 h) of 21.4 pg. For the same molecule, the MCHC (3 h) was 33.1%, the MCV (3 h) was 64.7 fL and the Mono (3 h) was 9.2%. The Neu (3 h) was 14.4%, the PT (3 h) was 12 s and the Plat (3 h) was 123.6 x10_4/uL. The RBC (3 h) was 614 x10_4/ul, the Ret (3 h) was 8.6% and the WBC (3 h) was 110.6 x10_2/uL. The KIDNEY_TOTAL (3 h) was 0.6 g, the LIVER (3 h) was 9.7 g and the A/G (3 h) was 2.3. The ALP (3 h) was 1326.2 IU/L, the ALT (3 h) was 36.6 IU/L and the AST (3 h) was 71 IU/L. For the same molecule, the BUN (3 h) was 13 mg/dL, the CRE (3 h) was 0.3 mg/dL and the Ca (3 h) was 11.4 mg/dL. The Cl (3 h) was 104.2 meq/L, the DBIL (3 h) was 0.012 mg/dL and the GLC (3 h) was 195.6 mg/dL. The IP (3 h) was 8.6 mg/dL, the K (3 h) was 4.4 meq/L and the LDH (3 h) was 82 IU/L. For the same molecule, the Na (3 h) was 139.8 meq/L, the PL (3 h) was 138.2 mg/dL and the RALB (3 h) was 3.7 g/dL. The TBIL (3 h) was 0.046 mg/dL, the TC (3 h) was 76 mg/dL and the TG (3 h) was 71.4 mg/dL. It also gave a TP (3 h) of 5.4 g/dL, a gamma-GTP (3 h) of 0.6 IU/L and a TERMINAL_BW (6 h) of 205.9 g. For the same molecule, the APTT (6 h) was 15.9 s, the Bas (6 h) was 0% and the Eos (6 h) was 1.2%. The Fbg (6 h) was 220.2 mg/dL, the Hb (6 h) was 13.2 g/dL and the Ht (6 h) was 40%. For the same molecule, the Lym (6 h) was 80.2%, the MCH (6 h) was 21.6 pg and the MCHC (6 h) was 32.9%. The MCV (6 h) was 65.7 fL, the Mono (6 h) was 4.4% and the Neu (6 h) was 14.6%. For the same molecule, the PT (6 h) was 12.2 s, the Plat (6 h) was 117 x10_4/uL and the RBC (6 h) was 609.4 x10_4/ul. For the same molecule, the Ret (6 h) was 9.7%, the WBC (6 h) was 92.8 x10_2/uL and the KIDNEY_TOTAL (6 h) was 0.7 g. It also gave an LIVER (6 h) of 9.7 g, an A/G (6 h) of 2.3 and an ALP (6 h) of 1368.6 IU/L. The ALT (6 h) was 35.6 IU/L, the AST (6 h) was 66.6 IU/L and the BUN (6 h) was 10.4 mg/dL. The CRE (6 h) was 0.3 mg/dL, the Ca (6 h) was 11.3 mg/dL and the Cl (6 h) was 104.2 meq/L. For the same molecule, the DBIL (6 h) was 0.01 mg/dL, the GLC (6 h) was 183.4 mg/dL and the IP (6 h) was 8.9 mg/dL. The K (6 h) was 4.4 meq/L, the LDH (6 h) was 79.2 IU/L and the Na (6 h) was 138.6 meq/L. For the same molecule, the PL (6 h) was 143.4 mg/dL, the RALB (6 h) was 3.7 g/dL and the TBIL (6 h) was 0.05 mg/dL. The TC (6 h) was 83.6 mg/dL, the TG (6 h) was 70.4 mg/dL and the TP (6 h) was 5.3 g/dL. For the same molecule, the gamma-GTP (6 h) was 1 IU/L, the TERMINAL_BW (9 h) was 204 g and the APTT (9 h) was 15.7 s. For the same molecule, the Bas (9 h) was 0%, the Eos (9 h) was 0.6% and the Fbg (9 h) was 221.4 mg/dL. For the same molecule, the Hb (9 h) was 12.8 g/dL, the Ht (9 h) was 39.1% and the Lym (9 h) was 73.4%. The MCH (9 h) was 21.6 pg, the MCHC (9 h) was 32.9% and the MCV (9 h) was 65.6 fL. It also gave a Mono (9 h) of 7.8%, a Neu (9 h) of 18.4% and a PT (9 h) of 11.9 s. It also gave a Plat (9 h) of 123 x10_4/uL, an RBC (9 h) of 597 x10_4/ul and a Ret (9 h) of 9%. The WBC (9 h) was 93.6 x10_2/uL, the KIDNEY_TOTAL (9 h) was 0.7 g and the LIVER (9 h) was 8.8 g. It also gave an A/G (9 h) of 2.4, an ALP (9 h) of 1162.4 IU/L and an ALT (9 h) of 34.2 IU/L. For the same molecule, the AST (9 h) was 68.8 IU/L, the BUN (9 h) was 10.8 mg/dL and the CRE (9 h) was 0.3 mg/dL. The Ca (9 h) was 11 mg/dL, the Cl (9 h) was 104.8 meq/L and the DBIL (9 h) was 0.01 mg/dL. It also gave a GLC (9 h) of 184 mg/dL, an IP (9 h) of 10 mg/dL and a K (9 h) of 4.5 meq/L. It also gave an LDH (9 h) of 85 IU/L, a Na (9 h) of 139.8 meq/L and a PL (9 h) of 137.4 mg/dL. The RALB (9 h) was 3.8 g/dL, the TBIL (9 h) was 0.046 mg/dL and the TC (9 h) was 87.6 mg/dL. It also gave a TG (9 h) of 45.2 mg/dL, a TP (9 h) of 5.4 g/dL and a gamma-GTP (9 h) of 1 IU/L. For the same molecule, the TERMINAL_BW (24 h) was 219.8 g, the APTT (24 h) was 16.5 s and the Bas (24 h) was 0%. It also gave an Eos (24 h) of 1%, a Fbg (24 h) of 225 mg/dL and a Hb (24 h) of 12.8 g/dL. It also gave a Ht (24 h) of 38.9%, a Lym (24 h) of 79.4% and an MCH (24 h) of 21.5 pg. It also gave an MCHC (24 h) of 32.8%, an MCV (24 h) of 65.6 fL and a Mono (24 h) of 5.2%. The Neu (24 h) was 14.4%, the PT (24 h) was 11.7 s and the Plat (24 h) was 124.2 x10_4/uL. It also gave an RBC (24 h) of 593 x10_4/ul, a Ret (24 h) of 8% and a WBC (24 h) of 92.8 x10_2/uL. It also gave a KIDNEY_TOTAL (24 h) of 0.7 g, an LIVER (24 h) of 10.7 g and an A/G (24 h) of 2.3. The ALP (24 h) was 1499.4 IU/L, the ALT (24 h) was 38.4 IU/L and the AST (24 h) was 66.4 IU/L. For the same molecule, the BUN (24 h) was 15.4 mg/dL, the CRE (24 h) was 0.4 mg/dL and the Ca (24 h) was 11.5 mg/dL. It also gave a Cl (24 h) of 104 meq/L, a DBIL (24 h) of 0.016 mg/dL and a GLC (24 h) of 188.4 mg/dL. It also gave an IP (24 h) of 7.7 mg/dL, a K (24 h) of 4.4 meq/L and an LDH (24 h) of 97 IU/L. The Na (24 h) was 140.4 meq/L, the PL (24 h) was 164.2 mg/dL and the RALB (24 h) was 3.9 g/dL. It also gave a TBIL (24 h) of 0.038 mg/dL, a TC (24 h) of 94.4 mg/dL and a TG (24 h) of 107 mg/dL. The TP (24 h) was 5.6 g/dL and the gamma-GTP (24 h) was 1 IU/L.
